Test system: AB1 murine mesothelioma cells
Test: Clonogenic assay after Photofrin PDT
Type: cell-based
Details: for % Cell Kill / Clonogenic Results (colonies) / Clonogenic Results, Averaged numbers: Photofrin 24 hours
Protocol: Initial tests were conducted in order to explore the possibility of generating inactivated whole tumor cells from PDT. Three variables were manipulated: Photofrin® incubation time, Photofrin® dosage, and light dosage. Since Photofrin® incubation times may determine cellular uptake—either just within the membrane or further into the cytoplasm—the cells were incubated for either 3-hours or 24-hours, followed by a 3-hour incubation in drug-free media. Second, cells were given a Photofrin dose of either 10 μg/mL or 25 μg/mL. Dosages were determined by consulting both past papers and another PDT research laboratory. Lastly, light dosage was varied. The light source was a Laserscope KTP/YAG laser with a 630 nm Dye Module. […] Laser light dosage was measured in fluence or j/cm^2. Light dosages ranged from 0.125 j/cm^2 to 1.0 j/cm^2.
Later in the study, dose-response curves followed by clonogenic assays, were performed in order to determine appropriate PDT light dosages for complete cell killing. In these tests, cells were incubated for 24-hours and exposed to high light dosages ranging from 1.0 j/cm^2 to 3.0 j/cm^2. The clonogenic assay measured cell plating efficiency and proliferation and involved plating cells at very low concentrations. After one week, resultant colonies that had formed were counted and compared against controls that had not been lit.
All three factors were modified with the intent of producing complete cell death. Cells were incubated in 25 μg/mL of Photofrin® for 3 hours and lit with 2.0 j/cm^2 of light at 630 nm. […] A clonogenic assay was performed to explore the dose-response relationship at this level of light, and the results are summarized in Table 2. For the assay, cells were incubated in 25 μg/mL of Photofrin® for 24 hours and lit with 1.0 to 3.0 j/cm^2 of light. […] After this test, PDT vaccines were generated by incubating cells in 25 μg/mL of Photofrin® for 24 hours and lit with 3.0 j/cm^2 of light.

[1] = 250 cells per plate, 1.5 j/cm^2
[2] = 500 cells per plate, 1.0 j/cm^2
[3] = 500 cells per plate, 1.5 j/cm^2
[4] = 500 cells per plate, 2.0 j/cm^2
[5] = 500 cells per plate, 2.0 j/cm^2 (100 mill), lit at high cell concentration
[6] = 500 cells per plate, 2.5 j/cm^2
[7] = 500 cells per plate, 3.0 j/cm^2
[8] = 500 cells per plate, 3.0 j/cm^2 (100 mill), lit at high cell concentration
[9] = 1000 cells per plate, 1.0 j/cm^2
[10] = 1000 cells per plate, 1.5 j/cm^2
[11] = 1000 cells per plate, 2.0 j/cm^2
[12] = 1000 cells per plate, 2.0 j/cm^2 (100 mill), lit at high cell concentration
[13] = 1000 cells per plate, 2.5 j/cm^2
[14] = 1000 cells per plate, 3.0 j/cm^2
[15] = 1000 cells per plate, 3.0 j/cm^2 (100 mill), lit at high cell concentration

Photofrin
cell kill in clonogenic assay (in words) (25 μg/mL Photofrin 24 hours, all conditions, light 1.0 to 3.0 j/cm^2 at 630 nm): nearly complete cell kill in all conditions
% Cell Kill [1]: 100%
Clonogenic Results (colonies) [1]: 0
Clonogenic Results, Averaged numbers [1]: 0.00
% Cell Kill [2]: 100%
Clonogenic Results (colonies) [2]: 0
Clonogenic Results, Averaged numbers [2]: 0.00
% Cell Kill [3]: 100%
Clonogenic Results (colonies) [3]: 0
Clonogenic Results, Averaged numbers [3]: 0.00
% Cell Kill [4]: 100%
Clonogenic Results (colonies) [4]: 0
Clonogenic Results, Averaged numbers [4]: 0.00
% Cell Kill [5]: 100%
Clonogenic Results (colonies) [5]: 0
Clonogenic Results, Averaged numbers [5]: 0
% Cell Kill [6]: 100%
Clonogenic Results (colonies) [6]: 0
Clonogenic Results, Averaged numbers [6]: 0
% Cell Kill [7]: 100%
Clonogenic Results (colonies) [7]: 0
Clonogenic Results, Averaged numbers [7]: 0
% Cell Kill [8]: 99.67%
Clonogenic Results, Averaged numbers [8]: 0.33
% Cell Kill [9]: 99.85%
Clonogenic Results, Averaged numbers [9]: 0.33
% Cell Kill [10]: 100.00%
Clonogenic Results (colonies) [10]: 0
Clonogenic Results, Averaged numbers [10]: 0.00
% Cell Kill [11]: 99.85%
Clonogenic Results, Averaged numbers [11]: 0.33
% Cell Kill [12]: 100%
Clonogenic Results (colonies) [12]: 0
Clonogenic Results, Averaged numbers [12]: 0
% Cell Kill [13]: 100%
Clonogenic Results (colonies) [13]: 0
Clonogenic Results, Averaged numbers [13]: 0
% Cell Kill [14]: 100%
Clonogenic Results (colonies) [14]: 0
Clonogenic Results, Averaged numbers [14]: 0
% Cell Kill [15]: 99.70%
Clonogenic Results, Averaged numbers [15]: 0.67

Source: patent US8834899B2, “Photodynamic therapy-generated mesothelioma vaccine” (The Trustees of the University of Pennsylvania, priority 2006, dated 2014)
